Source: PMC4955970, “Stable, synthetic analogs of diadenosine tetraphosphate inhibit rat and human P2X3 receptors and inflammatory pain” (Molecular Pain, 2016)
Where “and” joins values, the source holds several entries; their conditions need not be identical. Equal entries are not always repeated. Where two headings read alike, the source gives them in different places.

Tests used:
[1] = system: formalin-induced nociceptive behavior; test: Formalin test (spontaneous jerking of the injected hindpaw); format: in vivo, rat; conditions: for in vivo IC50 per animal body weight: calculated from effective concentrations in formalin model; for IC50: locally administered concentration, coinjection with formalin
Method: All animal experiments were carried out in accordance with the “Guide for the Care and Use of Laboratory Animals” as adopted by the Bogomoletz Institute of Physiology Clinic of Animal Care and Use. The formalin test experiments were performed on 21-day-old male Wistar rats, weighing 40 ± 5 g according to the method described previously.[49],[50] Briefly, animal was acclimated to an acrylic observation chamber for at least 1 h before the injection of formalin (50 µl of 0.5% solution in 0.9% saline) into the dorsal surface of the right hindpaw. Immediately after the injection, each animal was returned to the observation chamber and its behavioral characteristics were recorded for 45 min. We noticed consistently observed type of response: spontaneous jerking of the injected paw. The number of jerks was measured for each 1-min block, using self-developed computer software.
Figure 8. Effects of subcutaneous Ap4A analogs on pain responses induced by intraplantar (right hindpaw) formalin injection. Rats were subcutaneously injected with formalin solution alone (0.5%, 50 µl, control) or coinjected with the formalin solution and solutions with AppCH2ppA (1 µM–100 µM, 100 µl) or AppNHppA (0.1 µM–100 µM, 100 µl). Age-matched control animals were injected with saline. (a) Time course of the effects of subcutaneous AppCH2ppA (left) and AppNHppA (right) on the number of the spontaneous jerkings of the injected paw. (b) Bar graphs of the effects of AppCH2ppA (b, c) and AppNHppA (d, e) on the integral number of spontaneous jerkings. Measurements were made during the acute phase (0–6 min) and tonic phase (7–45 min) of the formalin response. (f) Dose-response curves for AppCH2ppA (left) and AppNHppA (right) during tonic and acute phases. For each concentration 6–7 rats were used.

[2] = target: T1, rat homomeric P2X3 receptors (Rattus norvegicus, UniProt P49654); test: Whole-cell patch clamp on HEK293 cells expressing rat homomeric P2X3R (activation and HAD inhibition of α,β-meATP test pulses); format: cell-based; conditions: for nH of activation curve: partial agonist dose-response
T1 construct: transfected with rat or human full-length P2X3 cDNA subcloned into pIRES2-EGFP; expressed in transfected cells; host or cells: HEK293T (HEK293 in the results)
T1 sequence (P49654 1-397): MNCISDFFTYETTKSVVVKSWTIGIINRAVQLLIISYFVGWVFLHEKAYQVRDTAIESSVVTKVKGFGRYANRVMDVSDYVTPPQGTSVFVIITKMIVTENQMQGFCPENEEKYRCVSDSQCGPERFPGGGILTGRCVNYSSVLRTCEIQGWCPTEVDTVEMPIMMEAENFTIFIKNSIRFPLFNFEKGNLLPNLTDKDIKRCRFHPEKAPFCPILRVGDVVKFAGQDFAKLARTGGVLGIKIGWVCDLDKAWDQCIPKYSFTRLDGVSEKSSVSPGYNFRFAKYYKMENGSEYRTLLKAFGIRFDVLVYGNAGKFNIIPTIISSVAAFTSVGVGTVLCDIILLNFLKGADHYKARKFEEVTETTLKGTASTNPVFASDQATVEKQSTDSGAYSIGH
Method: Rat trigeminal, nodose, or dorsal root ganglion (TG, NG, and DRG, respectivley) neurons in culture were prepared as described previously.[46],[47] Neurons were plated on poly-L-lysine (0.2 mg/ml)-coated Petri dishes and cultured for one to two days under an atmosphere containing 5% CO2. Cells were used within two days of plating when they lacked processes. HEK293T cells were prepared as reported previously[32],[48] and transfected with rat or human full-length P2X3 cDNA subcloned into pIRES2-EGFP (Clontech, Mountain View, CA, USA).
TG, NG, DRG, or HEK cells were recorded in the whole-cell configuration while being continuously superfused (at 2 ml/min) with control solution containing (in mM): 152 NaCl, 5 KCl, 1 MgCl2, 2 CaCl2, 10 glucose, and 10 HEPES; pH was adjusted to 7.4 with NaOH and osmolarity was adjusted to 320 mOsM with glucose. […] Responses to selective P2X3R agonist α,β-methylene-ATP (α,β-meATP; resistant to ectoATPase hydrolysis, Sigma-Aldrich) were measured using an EPC-9 amplifier operated by HEKA Patch Master software (HEKA Electronik, Germany). Cells were voltage-clamped at −70 mV. In most cells, series resistance was compensated by 80%. To determine EC50 values, dose-response curves were constructed for α,β-meATP by administering different agonist doses same cells and fitting data to a logistic equation (Origin 8.0, Microcal, Northampton, MA).
Agonists and antagonists were applied (usually for 2 s) via a rapid superfusion system (Rapid Solution Changer RSC-200; BioLogic Science Instruments, Grenoble, France) placed 100 to 150 µm near the cell. The time for the solution exchange across the cell was approximately 30 ms, as judged with liquid junction potential measurements. All chemicals, including enzymes for cell culture, were from Sigma-Aldrich (St. Louis, MO). Culture media were obtained from Invitrogen (Milan, Italy).
The peak amplitudes of the responses were measured using HEKA Patch Master software. For each agonist, dose-response plots were constructed by normalizing data with respect to the maximum response. All data are presented as mean ± SEM (n = the number of cells) with statistical significance assessed by paired t-test (for parametric data) or Mann-Whitney rank-sum test (for nonparametric data). Best fits of data with a sigmoid function were compared with respective control fits using Origin 8.0 software. A value of p < 0.05 was accepted as indicative of statistically significant difference.
Figure 2. Activation and inhibition of rat P2X3 receptors by AppNHppA. Top: Experimental protocol. Test pulses of 10 µM of α,β-meATP were delivered every 2 min. After two control pulses, AppNHppA at different concentrations was applied for 6 min. Example traces of P2X3R-mediated currents in control and after 2 min application of 10 nM (a) and 3 μM (b) of AppNHppA (corresponding to the part of the experimental protocol outlined by a dotted box). (c) The time course of the current inhibition by AppNHppA at different (1 nM–3 μM) concentrations (n = 4–6). Current amplitudes are normalized to control. (d) Dose-response curves for the activation and inhibition of P2X3-mediated currents by AppNHppA.

Compound: Nc1ncnc2c1ncn2[C@@H]1O[C@H](COP(=O)(O)OP(=O)(O)CP(=O)(O)OP(=O)(O)OC[C@H]2O[C@@H](n3cnc4c(N)ncnc43)C(O)C2O)C(O)C1O (stereo partly drawn) [AppCH2ppA, diadenosine 5′,5′′′-P^1,P^4-(β,γ-methylene)tetraphosphate]
- in vivo IC50 per animal body weight [1]: 0.72 nmol/kg and 0.61 µg/kg
- IC50 ([1]; acute phase, read-out: IC50 in the acute phase of formalin test): 34.7 ± 13.2 µM
- IC50 ([1]; tonic phase 7–45 min, read-out: IC50 in the tonic phase of formalin test): 0.29 ± 0.05 µM
- depression of P2X3R currents at high rate of activation ([2]; 1 µM, α,β-meATP pulses every 30 s): 81 ± 3%
- depression of P2X3R currents at low rate of activation ([2]; 1 µM, α,β-meATP pulses every 2 min): 61.3 ± 5%
- IC50 ([2]; 6 min after drug application, test pulse 10 µM α,β-meATP, read-out: IC50 of HAD inhibition of P2X3R currents): 0.55 ± 0.2 µM
- EC50 ([2]; HEK293 rat P2X3R, read-out: EC50 of partial agonist P2X3R activation): 9.3 ± 1.7 µM
- nH of activation curve [2]: 2.27 ± 0.56

Compound: Nc1ncnc2c1ncn2[C@@H]1O[C@H](COP(=O)(O)OP(=O)(O)NP(=O)(O)OP(=O)(O)OC[C@H]2O[C@@H](n3cnc4c(N)ncnc43)[C@H](O)[C@@H]2O)[C@@H](O)[C@H]1O [AppNHppA, diadenosine 5′,5′′′-P^1,P^4-(β,γ-imido)tetraphosphate]
- IC50 ([1]; Rattus norvegicus, acute phase, read-out: IC50 in the acute phase of formalin test): > 100 µM
- IC50 ([1]; Rattus norvegicus, tonic phase 7–45 min, read-out: IC50 in the tonic phase of formalin test): 0.11 ± 0.02 µM
- in vivo IC50 per animal body weight [1]: 0.28 nmol/kg and 0.23 µg/kg
- IC50 [2]: 0.2 ± 0.04 µM
- amplitude of α,β-meATP test response after application ([2]; 10 nM, test pulse 10 µM α,β-meATP, 2-min interval): almost unchanged
- reduction of α,β-meATP test responses (HAD effect) ([2]; 100 nM, below activation threshold): 38.2 ± 8.5%
- inhibition of α,β-meATP test responses (HAD effect) ([2]; 3 µM, test pulse 10 µM α,β-meATP, 2-min interval): complete inhibition
- induction of membrane currents ([2]; 0.1 or 1 µM, HEK293 rat homomeric P2X3R): not to induce membrane currents
- currents generated ([2]; 10 or 100 µM, HEK293 rat homomeric P2X3R): small and slowly desensitizing currents
- EC50 ([2]; EC50 of activation (summary restatement), rat P2X3R, summary statement): 41 µM
- EC50 ([2]; EC50 of partial agonist P2X3R activation, HEK293 rat P2X3R): 41.6 ± 1.3 µM
- inhibitory action in presence of G-protein inhibitor GDP-β-S ([2]; GDP-β-S 500 µM introduced into cells): remained unchanged
- inhibition at 1 µM ([2]; HEK293, read-out: inhibitory action on P2X3 receptors with GDP-β-S in intracellular solution): 23.9 ± 5.24%
- inhibition at 1 µM ([2]; HEK293, read-out: inhibitory action on P2X3 receptors with GTP in intracellular solution): 23.4 ± 2.01%
- agonist type at homomeric P2X3Rs ([2]; compared with full agonist α,β-meATP): only a partial agonist
- nH of activation curve [2]: 1.58 ± 0.05
- EC50/IC50 ratio (activation/inhibition index) ([2]; rat P2X3R): 205
- current response relative to response induced by 10 µM α,β-meATP ([2]; saturating 1 mM, same cell): 41.2 ± 13%
